Measured values taken from patent US10414811B2, “Protease-resistant lipidated GLP-1 analogs” (MEDIMMUNE LIMITED, priority 2015, dated 2019).
Like-named read-outs stand apart in the source and are kept apart here. Numbered stars: 1 amine (or outer) side, 2 acyl side, 3 side chain; on linkers, the order of the positions; unused ones are H or OH. Square brackets hold non-standard residues; d marks the D form. Side chains are listed from the residue outwards. Peptide text beside a SMILES is read from it. * marks the point of attachment. γGlu = O=C(O)[C@H](CCC(=O)[*:2])N[*:1]; Palmitoyl = CCCCCCCCCCCCCCCC(=O)*; αMeF = C[C@](N)(Cc1ccccc1)C(=O)O; αMeK = C[C@](N)(CCCCN)C(=O)O; αMeS = C[C@](N)(CO)C(=O)O; Aib = CC(C)(N)C(=O)O

Assays:
[1] = target: T1, human glucagon receptor (GCGR) (Homo sapiens, UniProt P47871); experiment: cAMP assay, human GCGR cells; type: cell-based; conditions: cAMP assay
T1 construct: expressed in transfected cells
Method: (§1) Sample dilutions are made in duplicate.
(§2) A frozen cryo-vial of cells expressing the receptor of interest is thawed rapidly in a water-bath, transferred to pre-warmed assay buffer and spun at 240×g for 5 minutes. Cells are re-suspended in assay buffer at a batch-dependent optimized concentration (e.g. hGCGR cells at 2×10^5 cells/ml, hGLP-1R and hGIPR cells at 1×10^5 cells/ml).
(§3) To this, 5 μL cell suspension is added and the plates incubated at room temperature for 30 minutes.
(§4) cAMP levels are measured using a commercially available cAMP dynamic 2 HTRF kit (Cisbio, Cat #62AM4PEJ), following the two step protocol as per manufacturer's recommendations. In brief; anti-cAMP cryptate (donor fluorophore) and cAMP-d2 (acceptor fluorophore) are made up separately by diluting each 1/20 in conjugate & lysis buffer provided in the kit. 5 μL anti-cAMP cryptate is added to wells of the assay plate, and 5 μL cAMP-d2 is added to wells except non-specific binding (NSB) wells, to which conjugate and lysis buffer are added. […] EC50 values of the synthetic peptides determined in cAMP assays are then determined.
(§5) Data is transformed to % Delta F as described in the manufacturer's guidelines and analyzed by 4-parameter logistic fit to determine EC50 values. […] To compare the balance of activities at the GLP-1R and GCGR between different peptides and across different conditions, these can be correlated, where the EC50's are related to those of comparator peptides.

[2] = target: T2, human glucose-dependent insulinotropic peptide receptor (GIPR) (Homo sapiens, UniProt P48546); experiment: cAMP assay, human GIPR cells; type: cell-based; conditions: cAMP assay
T2 construct: expressed in transfected cells
T2 sequence (P48546 22-466): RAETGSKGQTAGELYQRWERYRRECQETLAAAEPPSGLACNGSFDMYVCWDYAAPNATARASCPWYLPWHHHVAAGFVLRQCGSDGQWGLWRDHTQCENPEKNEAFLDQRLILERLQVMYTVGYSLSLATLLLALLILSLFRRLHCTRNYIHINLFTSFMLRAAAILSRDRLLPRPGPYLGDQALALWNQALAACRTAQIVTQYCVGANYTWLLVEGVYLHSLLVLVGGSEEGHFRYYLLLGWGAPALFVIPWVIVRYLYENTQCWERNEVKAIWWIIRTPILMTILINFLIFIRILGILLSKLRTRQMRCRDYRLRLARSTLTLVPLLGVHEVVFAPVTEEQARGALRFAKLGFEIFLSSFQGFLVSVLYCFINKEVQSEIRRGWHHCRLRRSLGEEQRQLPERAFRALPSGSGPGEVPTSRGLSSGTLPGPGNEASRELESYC
Method: as §1, §2, §3, §4, §5

[3] = first determination (n1), read-out: Primary assay EC50 Gluc-R (n1)
[4] = second determination (n2), read-out: Primary assay EC50 Gluc-R (n2)
[5] = first determination (n1), read-out: Primary assay EC50 GIP-R (n1)
[6] = second determination (n2), read-out: Primary assay EC50 GIP-R (n2)

T1 sequence (P47871 26-477): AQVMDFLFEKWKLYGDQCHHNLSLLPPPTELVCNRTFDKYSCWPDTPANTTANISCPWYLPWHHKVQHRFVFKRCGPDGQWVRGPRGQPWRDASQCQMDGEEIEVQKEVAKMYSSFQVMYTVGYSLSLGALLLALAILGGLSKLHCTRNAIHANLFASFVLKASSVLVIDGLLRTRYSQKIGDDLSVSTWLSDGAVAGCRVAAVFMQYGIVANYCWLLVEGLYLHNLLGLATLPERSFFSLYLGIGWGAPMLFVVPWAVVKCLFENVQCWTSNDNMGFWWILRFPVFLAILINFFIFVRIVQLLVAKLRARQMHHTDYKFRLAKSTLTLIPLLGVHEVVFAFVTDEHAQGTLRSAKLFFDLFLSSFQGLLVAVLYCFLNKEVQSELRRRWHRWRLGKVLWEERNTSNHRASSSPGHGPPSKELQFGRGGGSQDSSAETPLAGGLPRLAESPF

Row | Structure (SMILES) | EC50 [1, 3] [nM] | EC50 [1, 4] [nM] | EC50 [2, 5] [nM] | EC50 [2, 6] [nM]
1 | CC[C@H](C)[C@H](NC(=O)[C@H](Cc1ccccc1)NC(=O)[C@H](CCC(=O)O)NC(=O)[C@H](CCCCN)NC(=O)[C@H](C)NC(=O)[C@H](C)NC(=O)[C@H](CCC(N)=O)NC(=O)CNC(=O)[C@H](CCC(=O)O)NC(=O)[C@H](CC(C)C)NC(=O)[C@H](Cc1ccc(O)cc1)NC(=O)[C@H](CO)NC(=O)[C@](C)(CO)NC(=O)[C@@H](NC(=O)[C@H](CC(=O)O)NC(=O)[C@H](CO)NC(=O)[C@@H](NC(=O)[C@H](Cc1ccccc1)NC(=O)[C@@H](NC(=O)CNC(=O)[C@H](CCC(=O)O)NC(=O)C(C)(C)NC(=O)[C@@H](N)Cc1c[nH]cn1)[C@@H](C)O)[C@@H](C)O)C(C)C)C(=O)N[C@@H](C)C(=O)N[C@@H](Cc1c[nH]c2ccccc12)C(=O)N[C@@H](CC(C)C)C(=O)N[C@H](C(=O)N[C@@H](CCCCN)C(=O)NCC(=O)N[C@@H](CCCNC(=N)N)C(N)=O)C(C)C [compound 21] | ≥ 340 | ≥ 340 | ≥ 340 | ≥ 340
2 | CC[C@H](C)[C@H](NC(=O)[C@H](Cc1ccccc1)NC(=O)[C@H](CCC(=O)O)NC(=O)[C@H](CCCCN)NC(=O)[C@H](C)NC(=O)[C@H](C)NC(=O)[C@H](CCC(N)=O)NC(=O)CNC(=O)[C@H](CCC(=O)O)NC(=O)[C@H](CC(C)C)NC(=O)[C@H](Cc1ccc(O)cc1)NC(=O)[C@H](CO)NC(=O)C(C)(C)NC(=O)[C@@H](NC(=O)[C@H](CC(=O)O)NC(=O)[C@H](CO)NC(=O)[C@@H](NC(=O)[C@H](Cc1ccccc1)NC(=O)[C@@H](NC(=O)CNC(=O)[C@H](CCC(=O)O)NC(=O)C(C)(C)NC(=O)[C@@H](N)Cc1c[nH]cn1)[C@@H](C)O)[C@@H](C)O)C(C)C)C(=O)N[C@@H](C)C(=O)N[C@@H](Cc1c[nH]c2ccccc12)C(=O)N[C@@H](CC(C)C)C(=O)N[C@H](C(=O)N[C@@H](CCCCN)C(=O)NCC(=O)N[C@@H](CCCNC(=N)N)C(N)=O)C(C)C [compound 22] (H-H[Aib]EGTFTSDV[Aib]SYLEGQAAKEFIAWLVKGR-NH2; N-terminus assumed) | 390 | 240 | 480 | 480
3 | CC[C@H](C)[C@H](NC(=O)[C@H](Cc1ccccc1)NC(=O)[C@H](CCC(=O)O)NC(=O)[C@H](CCCCN)NC(=O)[C@H](C)NC(=O)[C@H](C)NC(=O)[C@H](CCC(N)=O)NC(=O)CNC(=O)[C@H](CCC(=O)O)NC(=O)[C@H](CC(C)C)NC(=O)[C@H](Cc1ccc(O)cc1)NC(=O)[C@H](CO)NC(=O)[C@](C)(CO)NC(=O)[C@@H](NC(=O)[C@H](CC(=O)O)NC(=O)[C@](C)(CO)NC(=O)[C@@H](NC(=O)[C@H](Cc1ccccc1)NC(=O)[C@@H](NC(=O)CNC(=O)[C@H](CCC(=O)O)NC(=O)C(C)(C)NC(=O)[C@@H](N)Cc1c[nH]cn1)[C@@H](C)O)[C@@H](C)O)C(C)C)C(=O)N[C@@H](C)C(=O)N[C@@H](Cc1c[nH]c2ccccc12)C(=O)N[C@@H](CC(C)C)C(=O)N[C@H](C(=O)N[C@@H](CCCCN)C(=O)NCC(=O)N[C@@H](CCCNC(=N)N)C(N)=O)C(C)C [compound 23] | ≥ 540 | ≥ 540 | ≥ 540 | ≥ 540
4 | CC[C@H](C)[C@H](NC(=O)[C@](C)(Cc1ccccc1)NC(=O)[C@H](CCC(=O)O)NC(=O)[C@](C)(CCCCN)NC(=O)[C@H](C)NC(=O)[C@H](C)NC(=O)[C@H](CCC(=O)O)NC(=O)CNC(=O)[C@H](CCC(=O)O)NC(=O)[C@H](CC(C)C)NC(=O)[C@](C)(Cc1ccccc1)NC(=O)[C@H](CO)NC(=O)[C@](C)(CO)NC(=O)[C@@H](NC(=O)[C@H](CC(=O)O)NC(=O)[C@H](CCC(=O)O)NC(=O)[C@@H](NC(=O)[C@](C)(Cc1ccccc1)NC(=O)[C@H](CO)NC(=O)CNC(=O)[C@H](CCC(=O)O)NC(=O)C(C)(C)NC(=O)[C@@H](N)Cc1c[nH]cn1)[C@@H](C)O)C(C)C)C(=O)N[C@@H](C)C(=O)N[C@@](C)(Cc1ccccc1)C(=O)N[C@H](C(=O)N[C@H](C(=O)N[C@@](C)(CCCCN)C(=O)NCC(=O)NCC(N)=O)C(C)C)C(C)C [compound 28] (H-H[Aib]EGS[αMeF]TEDV[αMeS]S[αMeF]LEGEAA[αMeK]E[αMeF]IA[αMeF]VV[αMeK]GG-NH2) | ≥ 100 | ≥ 100 | ≥ 100 | ≥ 100
5 | CC[C@H](C)[C@H](NC(=O)[C@](C)(Cc1ccccc1)NC(=O)[C@H](CCC(=O)O)NC(=O)[C@](C)(CCCCN)NC(=O)[C@H](C)NC(=O)[C@H](C)NC(=O)[C@H](CCC(=O)O)NC(=O)CNC(=O)[C@H](CCC(=O)O)NC(=O)[C@H](CC(C)C)NC(=O)[C@](C)(Cc1ccccc1)NC(=O)[C@H](CO)NC(=O)[C@](C)(CO)NC(=O)[C@@H](NC(=O)[C@H](CC(=O)O)NC(=O)[C@@H](NC(=O)[C@@H](NC(=O)[C@](C)(Cc1ccccc1)NC(=O)[C@H](CO)NC(=O)CNC(=O)[C@H](CCC(=O)O)NC(=O)C(C)(C)NC(=O)[C@@H](N)Cc1c[nH]cn1)[C@@H](C)O)[C@@H](C)O)C(C)C)C(=O)N[C@@H](C)C(=O)N[C@@](C)(Cc1ccccc1)C(=O)N[C@H](C(=O)N[C@H](C(=O)N[C@@](C)(CCCCN)C(=O)NCC(=O)NCC(N)=O)C(C)C)C(C)C [compound 29] (H-H[Aib]EGS[αMeF]TTDV[αMeS]S[αMeF]LEGEAA[αMeK]E[αMeF]IA[αMeF]VV[αMeK]GG-NH2) | ≥ 100 | ≥ 100 | ≥ 100 | ≥ 100
6 | CC[C@H](C)[C@H](NC(=O)[C@](C)(Cc1ccccc1)NC(=O)[C@H](CCC(=O)O)NC(=O)[C@H](CCC(=O)O)NC(=O)[C@H](C)NC(=O)[C@H](C)NC(=O)[C@H](CCC(=O)O)NC(=O)CNC(=O)[C@H](CCC(=O)O)NC(=O)[C@H](CC(C)C)NC(=O)[C@](C)(Cc1ccccc1)NC(=O)[C@H](CO)NC(=O)[C@](C)(CO)NC(=O)[C@@H](NC(=O)[C@H](CC(=O)O)NC(=O)[C@H](CO)NC(=O)[C@@H](NC(=O)[C@](C)(Cc1ccccc1)NC(=O)[C@H](CO)NC(=O)CNC(=O)[C@H](CCC(=O)O)NC(=O)C(C)(C)NC(=O)[C@@H](N)Cc1c[nH]cn1)[C@@H](C)O)C(C)C)C(=O)N[C@@H](C)C(=O)N[C@@](C)(Cc1ccccc1)C(=O)N[C@H](C(=O)N[C@H](C(=O)N[C@@H](CCC(=O)O)C(=O)NCC(=O)NCC(N)=O)C(C)C)C(C)C [compound 44] (H-H[Aib]EGS[αMeF]TSDV[αMeS]S[αMeF]LEGEAAEE[αMeF]IA[αMeF]VVEGG-NH2) | ≥ 31 | ≥ 31 | ≥ 31 | ≥ 31
7 | CCCCCCCCCCCCCCCC(=O)N[C@@H](CCC(=O)NCCCC[C@H](NC(=O)[C@](C)(Cc1ccccc1)NC(=O)[C@H](CCC(=O)O)NC(=O)[C@](C)(CCCCN)NC(=O)[C@H](C)NC(=O)[C@H](C)NC(=O)[C@H](CCC(=O)O)NC(=O)CNC(=O)[C@H](CCC(=O)O)NC(=O)[C@H](CC(C)C)NC(=O)[C@](C)(Cc1ccccc1)NC(=O)[C@H](CO)NC(=O)[C@](C)(CO)NC(=O)[C@@H](NC(=O)[C@H](CC(=O)O)NC(=O)[C@H](CO)NC(=O)[C@@H](NC(=O)[C@](C)(Cc1ccccc1)NC(=O)[C@H](CO)NC(=O)CNC(=O)[C@H](CCC(=O)O)NC(=O)C(C)(C)NC(=O)[C@@H](N)Cc1c[nH]cn1)[C@@H](C)O)C(C)C)C(=O)N[C@@H](C)C(=O)N[C@@](C)(Cc1ccccc1)C(=O)N[C@H](C(=O)N[C@H](C(=O)N[C@@](C)(CCCCN)C(=O)NCC(=O)NCC(N)=O)C(C)C)C(C)C)C(=O)O [compound 77] (H-H[Aib]EGS[αMeF]TSDV[αMeS]S[αMeF]LEGEAA[αMeK]E[αMeF]K([γGlu-Palmitoyl])A[αMeF]VV[αMeK]GG-NH2) | ≥ 28 | ≥ 28 | ≥ 28 | ≥ 28
8 | CCCCCCCCCCCC(=O)N[C@@H](CCC(=O)N[C@@H](CCC(=O)NCCCC[C@H](NC(=O)[C@H](C)NC(=O)[C@H](C)NC(=O)[C@H](CCC(=O)O)NC(=O)CNC(=O)[C@H](CCC(=O)O)NC(=O)[C@H](CC(C)C)NC(=O)[C@](C)(Cc1ccccc1)NC(=O)[C@H](CO)NC(=O)[C@](C)(CO)NC(=O)[C@@H](NC(=O)[C@H](CC(=O)O)NC(=O)[C@H](CO)NC(=O)[C@@H](NC(=O)[C@](C)(Cc1ccccc1)NC(=O)[C@H](CO)NC(=O)CNC(=O)[C@H](CCC(=O)O)NC(=O)C(C)(C)NC(=O)[C@@H](N)Cc1c[nH]cn1)[C@@H](C)O)C(C)C)C(=O)N[C@@H](CCC(=O)O)C(=O)N[C@@](C)(Cc1ccccc1)C(=O)N[C@H](C(=O)N[C@@H](C)C(=O)N[C@@](C)(Cc1ccccc1)C(=O)N[C@H](C(=O)N[C@H](C(=O)N[C@@](C)(CCCCN)C(=O)NCC(=O)NCC(N)=O)C(C)C)C(C)C)[C@@H](C)CC)C(=O)O)C(=O)O [compound 129] | ≥ 27 | ≥ 27 | ≥ 27 | ≥ 27
